Test results taken from ChEMBL document CHEMBL4483862, “Open-source discovery of chemical leads for next-generation chemoprotective antimalarials” (2018).

Tested on: Plasmodium berghei
Experiment: Luciferase/luciferin-expressing antifolate-resistant parasites were used to infect a culture of HepG2 cells that were pre-incubated with compounds. Infected hepatocytes emit light due to the luciferase reaction. Assay results are presented as the percent inhibition of light emission compared to control. […]
Type: functional
Conditions: sporozoite; for IC90: read-out: LUCIFERASE INFECTION ASSAY - IC90
[1] = read-out: LUCIFERASE INFECTION ASSAY - IC50

Compound | IC50 [1] | IC90 | other results
O=C(CN1CCN(C(=O)CN2C(=O)NC3(CCCC3)C2=O)CC1)N1CCCC1 | > 10 µM | > 10 µM | –
CC(C)N1C(=O)N(CCc2ccccc2)C2(CCN(C3Cc4ccccc4C3)CC2)C1=O | 6.55 µM | > 7.65 µM | –
CSc1ccccc1NC(=O)CN(C)c1nc(CSc2ccccc2)nc2sc3c(c12)CCC3 | > 10 µM | > 10 µM | –
COc1ccccc1-n1c(C)cc(/C=C(\C#N)c2nnc3n2CCCCC3)c1C | – | > 10 µM | IC50 (PBLUC_HILL_SLOPE 15.5, PBLUC_R_SQUARED 0.0701, read-out: LUCIFERASE INFECTION ASSAY - IC50): 9.71 µM
COc1ccccc1C(=O)c1cnc(Nc2cccc(Cc3ccccc3)c2)[nH]1 | – | > 8.61 µM | IC50 (HEPG2TOX_HILL_SLOPE 11.7, HEPG2TOX_R_SQUARED 0.773, PBLUC_HILL_SLOPE 15.1, PBLUC_R_SQUARED 0.204, read-out: LUCIFERASE INFECTION ASSAY - IC50): 7.82 µM
COc1ccc(-c2c(C)nn3c(=O)cc(CSc4ccc(C)cc4)[nH]c23)cc1 | – | 3.91 µM | IC50 (HEPG2TOX_HILL_SLOPE 2.74, HEPG2TOX_R_SQUARED 0.727, PBLUC_HILL_SLOPE 9.33, PBLUC_R_SQUARED 0.653, read-out: LUCIFERASE INFECTION ASSAY - IC50): 3.09 µM
COc1ccc([N+](=O)[O-])cc1C(=O)NCCOc1ccc2ccccc2c1 | – | > 10 µM | IC50 (PBLUC_HILL_SLOPE 24.5, PBLUC_R_SQUARED 0.535, read-out: LUCIFERASE INFECTION ASSAY - IC50): 9.5 µM
COc1ccc(-c2csc3ncnc(NCCC(C)C)c23)cc1 | > 10 µM | > 10 µM | –
CC(C)CNC(=O)CN1CCN(c2nc(-c3cccs3)nc3sc4c(c23)CCC4)CC1 | 3.4 µM | 3.94 µM | –
Cc1csc(=O)n1CC(=O)Nc1ccccc1C(=O)NCc1ccco1 | > 10 µM | > 10 µM | –
O=c1c(Cl)c(Cl)cnn1-c1ccc(S(=O)(=O)NCCc2ccc3c(c2)OCCO3)cc1 | – | > 10 µM | IC50 (PBLUC_HILL_SLOPE 21.5, PBLUC_R_SQUARED 0.289, read-out: LUCIFERASE INFECTION ASSAY - IC50): 9.64 µM
CCn1c2ccccc2c2cc(NC(=O)COC(=O)Cc3cccs3)ccc21 | – | > 10 µM | IC50 (PBLUC_HILL_SLOPE 11.3, PBLUC_R_SQUARED 0.588, read-out: LUCIFERASE INFECTION ASSAY - IC50): 9.26 µM
COc1cc(C(=O)Nc2nc3ccccc3[nH]2)ccc1C | 5.35 µM | 8.73 µM | –
CCN(CC(=O)Nc1cccc(OC)c1)C(=O)C1Cc2ccccc2O1 (stereo unspecified) | > 10 µM | > 10 µM | –
Cc1onc(-c2ccccc2)c1-c1csc(Nc2cc(C(F)(F)F)cc(C(F)(F)F)c2)n1 | – | 3.88 µM | IC50 (FFLUC_HILL_SLOPE 38.4, FFLUC_R_SQUARED 0.44, HEPG2TOX_HILL_SLOPE 9.25, HEPG2TOX_R_SQUARED 0.968, PBLUC_HILL_SLOPE 81.8, PBLUC_R_SQUARED 0.627, read-out: LUCIFERASE INFECTION ASSAY - IC50): 3.78 µM
CCCNC(=O)c1c(NC(=O)c2ccc(C)cc2)nc2ccc(C)cn12 | – | 4.76 µM | IC50 (FFLUC_HILL_SLOPE 15.6, FFLUC_R_SQUARED 0.337, HEPG2TOX_HILL_SLOPE 1.6, HEPG2TOX_R_SQUARED 0.209, PBLUC_HILL_SLOPE 10.4, PBLUC_R_SQUARED 0.336, read-out: LUCIFERASE INFECTION ASSAY - IC50): 3.85 µM
CN(C)c1ccc(-c2cnc3cnc(-c4ccc(C(=O)NCCO)cc4)cn23)cc1 | – | > 8.22 µM | IC50 (PBLUC_HILL_SLOPE 2.64, PBLUC_R_SQUARED 0.078, read-out: LUCIFERASE INFECTION ASSAY - IC50): 6.1 µM

Compound | IC50 [1] | IC90 | other results
CN(C)c1c(/C=C2\C(=O)Nc3ccccc32)cc(/C=C2/C(=O)Nc3ccccc32)c(N(C)C)c1C#N | – | 4.13 µM | IC50 (FFLUC_HILL_SLOPE 3.06, FFLUC_R_SQUARED 0.454, HEPG2TOX_HILL_SLOPE 1.28, HEPG2TOX_R_SQUARED 0.858, PBLUC_HILL_SLOPE 2.4, PBLUC_R_SQUARED 0.768, read-out: LUCIFERASE INFECTION ASSAY - IC50): 1.65 µM
COc1cc(-c2cnc3cnc(-c4cnn(C)c4)cn23)ccc1O | – | 3.64 µM | IC50 (HEPG2TOX_HILL_SLOPE 7.18, HEPG2TOX_R_SQUARED 0.736, PBLUC_HILL_SLOPE 4.69, PBLUC_R_SQUARED 0.709, read-out: LUCIFERASE INFECTION ASSAY - IC50): 2.28 µM
FC(F)(F)c1c(-c2nc(-c3ccc(Cl)cc3)no2)cnn1-c1ccccc1 | – | 1.19 µM | IC50 (PBLUC_HILL_SLOPE 1.45, PBLUC_R_SQUARED 0.734, read-out: LUCIFERASE INFECTION ASSAY - IC50): 0.262 µM
Cc1ccc(S(=O)(=O)NC(=O)c2c(C(=O)NS(=O)(=O)c3ccc(C)cc3)c(C)n(-c3ccc(N(C)C)cc3)c2C)cc1 | > 10 µM | > 10 µM | –
COc1ccc(CO/N=C/NC(=O)C(c2ccc(Cl)cc2)c2nc3ccccc3nc2C(F)(F)F)cc1 (stereo unspecified) | – | > 6.24 µM | IC50 (HEPG2TOX_HILL_SLOPE 1.06, HEPG2TOX_R_SQUARED 0.661, read-out: LUCIFERASE INFECTION ASSAY - IC50): > 6.24 µM
CC(=O)c1ccc(NC(=O)CCn2nnc(-c3ccc(C(C)C)cc3)n2)cc1 | – | > 10 µM | IC50 (PBLUC_HILL_SLOPE 1, PBLUC_R_SQUARED 0.439, read-out: LUCIFERASE INFECTION ASSAY - IC50): 6.32 µM
NC(=O)c1ccc(CN(C2CC2)S(=O)(=O)c2ccc3c(c2)CCC3)cc1 | – | > 10 µM | IC50 (PBLUC_HILL_SLOPE 1.27, PBLUC_R_SQUARED 0.0564, read-out: LUCIFERASE INFECTION ASSAY - IC50): > 10 µM
c1ccc(CNCc2cn(-c3ccccc3)nc2-c2ccncc2)cc1 | – | > 8.76 µM | IC50 (PBLUC_HILL_SLOPE 0.853, PBLUC_R_SQUARED 0.208, read-out: LUCIFERASE INFECTION ASSAY - IC50): > 8.76 µM
Cc1ccn2c(=O)cc(CN3C(=O)NC4(CCCc5ccccc54)C3=O)nc2c1 (stereo unspecified) | – | > 10 µM | IC50 (PBLUC_HILL_SLOPE 16.8, PBLUC_R_SQUARED 0.349, read-out: LUCIFERASE INFECTION ASSAY - IC50): 9.44 µM
O=C(CSc1nnc(Nc2ccc(SC(F)F)cc2)s1)c1cccs1 | – | > 10 µM | IC50 (FFLUC_HILL_SLOPE 26.5, FFLUC_R_SQUARED 0.442, read-out: LUCIFERASE INFECTION ASSAY - IC50): > 10 µM
FC(F)(F)c1cc(NC(=S)N2CCC(CCCC3CCN(C(=S)Nc4cc(C(F)(F)F)cc(C(F)(F)F)c4)CC3)CC2)cc(C(F)(F)F)c1 | – | > 4.38 µM | IC50 (FFLUC_HILL_SLOPE 260, FFLUC_R_SQUARED 0.348, HEPG2TOX_HILL_SLOPE 8.4, HEPG2TOX_R_SQUARED 0.678, PBLUC_HILL_SLOPE 17.9, PBLUC_R_SQUARED 0.0888, read-out: LUCIFERASE INFECTION ASSAY - IC50): > 4.38 µM
CC(C)Cc1nc2oc3c(NCCO)ncnc3c2c2c1CCCC2 | – | > 9.69 µM | IC50 (PBLUC_HILL_SLOPE 4.31, PBLUC_R_SQUARED 0.188, read-out: LUCIFERASE INFECTION ASSAY - IC50): 6.98 µM
OCc1ccc(-c2cnc3cnc(-c4ccsc4)cn23)cc1 | – | 8.46 µM | IC50 (PBLUC_HILL_SLOPE 3.6, PBLUC_R_SQUARED 0.458, read-out: LUCIFERASE INFECTION ASSAY - IC50): 4.59 µM
CCCc1cc(=O)nc(SCC(=O)C23CC4CC(CC(C4)C2)C3)[nH]1 | – | 9.67 µM | IC50 (PBLUC_HILL_SLOPE 3.05, PBLUC_R_SQUARED 0.0755, read-out: LUCIFERASE INFECTION ASSAY - IC50): 4.7 µM
Nc1ncc(-c2ccc(C(=O)NC3CC3)cc2)cc1-c1ccc(F)c(Cl)c1 | – | 8.39 µM | IC50 (PBLUC_HILL_SLOPE 15.4, PBLUC_R_SQUARED 0.346, read-out: LUCIFERASE INFECTION ASSAY - IC50): 7.27 µM
Cc1ccc2cc(CN3CCCCC3C(N)=O)c(Cl)nc2c1C (stereo unspecified) | > 10 µM | > 10 µM | –
